The record followed here is patent US20110003017A1, “Method for Preparation of Extract from Angelica Gigas Nakai and Composition Containing the Extract” (AZI Co., Ltd., priority 2007, published 2011).

This experiment is described as follows: antioxidant effects (electron donating ability) using DPPH. Format: biochemical. To be noted: DPPH radical scavenging, absorbance at 520 nm. As to the method:
The antioxidant effects were determined using 1,1-diphenyl-2-picryl hydrazyl (DPPH). Analysis of the extract using DPPH is performed by the following method.
DPPH having radicals is mostly used for determining radical scavenging performance. DPPH was purchased from Sigma. The following procedures were carried out:
1) 2 ml of 0.1 mM […] (Sigma, D-9132) in ethanol was added to 2 ml of a sample dissolved in ethanol;
2) After mixing the solution for 10 minutes, the mixture was left in a dark place;
3) Absorbance of the resultant product at 520 nm was measured;
4) Calculation of antioxidant efficacy (electron donating ability),
EDA (electron donating ability)=(Cabs−Sabs)/Cabs*100
wherein • Cabs: absorbance of a negative control (which contains ethanol only instead of a sample), • Sabs: absorbance of a sample, and • Positive control: Vitamin E (Fluka, 95240) as a sample.
Antioxidant effects were compared between both extract powders obtained in Examples 1 and 2. Using DPPH analyzed and quantified EDA to determine the antioxidant effects of the extract powder. IC50 means a concentration required for scavenging 50% of radicals and it is determined that the antioxidant effects are enhanced as IC50 value is lowered.
(In general: Loss of DPPH colour is used to gauge radical scavenging.)

With Vitamin E, the “IC50 (concentration required for scavenging 50% of radicals)” value stood at 15 µg/mL.
